Test results from paper PMC8536575, “Acute effects of the imidacloprid metabolite desnitro-imidacloprid on human nACh receptors relevant for neuronal signaling” (Archives of Toxicology, 2021).
Where “and” joins values, the source holds several entries; their conditions need not be identical. Equal entries are not always repeated.

How the values were obtained:
[1] = test system: nAChRs on SH-SY5Y cells; test: [Ca2+]i measurements in SH-SY5Y cells (agonist effect); type: cell-based, human
Protocol: (§1) SH-SY5Y cells were cultured as previously described (Attoff et al. [2016]). Briefly, they were cultured in MEM supplemented with 10% fetal bovine serum (Gibco, 31330095), 1% non-essential amino acid solution (Gibco, 11140035), 2 mM L-glutamine (Gibco, 25030024), 100 μg/ml streptomycin, and 100 U/ml penicillin (Gibco, 15140122). For maintenance culture, SH-SY5Y cells were seeded at 27,000 cells/cm^2 in 75 cm^2 cell culture flasks (Corning). The cells were passaged once a week using TrypLE Express Enzyme (Gibco). SH-SY5Y cells were differentiated into a neuronal-like phenotype by exchanging the maintenance medium with differentiation medium consisting of DMEM/F12 (Gibco, 31330095) supplemented with 1 mM L-glutamine (Gibco, 25030024), 100 μg streptomycin/mL, 100 U penicillin/mL, 1 × N2-supplement (Gibco, 17502048) and 1 µM all-trans retinoic acid (RA, Sigma, R2625) 24 h after seeding. The cells were incubated in 100% humidity at 37 °C in air with 5% CO2.
(§2) To measure acute changes in the average [Ca^2+]i of a population, SH-SY5Y cells were examined in the 96-well plate fluorescence reader FlexStation II (Molecular Devices) using the fluorophore Fura-2AM. SH-SY5Y (35,000 cells/well; 109,375 cells/cm^2) were seeded in maintenance culture medium in black 96-well plates with clear bottom (Corning, #3603). 24 h after seeding, maintenance medium was replaced with differentiation medium. After 72 h of differentiation, Fura-2AM dissolved in DMSO and diluted in KRH buffer (125 mM NaCl, 5 mM KCl, 1.2 mM MgSO4, 1.2 mM KH2PO4, 2.0 mM CaCl2, 6.0 mM D-glucose, and 25 mM HEPES (free acid), pH adjusted to 7.4 by 1.0 M NaOH) were added to the medium to a final concentration of 4 µM (Gustafsson et al. [2010]). The plates were incubated for 30 min at 37 °C before cells were washed once with 200 µl KRH buffer. 90 µl of KRH buffer without or with 10 µM PNU-120596 (PNU) and/or 125 µM mecamylamine (Mec) and/or test chemicals in different concentrations for antagonist experiments were added to the Fura-2AM-loaded cells. The plate was again incubated for 20 min to allow full hydrolysis of the AM group before the experiment. The fluorescence was assessed at 37 °C in the fluorescence plate reader (FlexStation II; Molecular Devices) at two different excitation wavelengths, 340 nm for Ca^2+-bound Fura-2 and 380 nm for free Fura-2, and at 510 nm emission, every 3.1 s using bottom read settings. After 26–29 s of initial baseline recording of the fluorescence intensity, 10 µl of the compound dilution (10 times higher than the final concentration to the cells) was transferred automatically by the FlexStation II (“Flex mode”) to the cell plate wells (five wells per concentration) and the fluorescence intensity was monitored for another 150 s. The ratio of fluorescence intensity at 340/380 nm was determined and the mean values from the baseline recording before the addition of test compounds was set to zero. The acute change in the Ca^2+ influx after the addition of the compounds was quantified as the area under the curve (AUC) using the SoftMax Pro 4.8 software (Molecular Devices). All test compounds were dissolved in DMSO. Compounds were diluted in KRH buffer in 1:3 series, with 100 µM as the highest concentration. As a negative control, 0.1% DMSO in KRH buffer was used.

[2] = target: nAChRs on SH-SY5Y cells (Homo sapiens, UniProt P36544); test: as above; type: cell-based; details: presence of PNU
Sequence of nAChRs on SH-SY5Y cells (Homo sapiens, UniProt P36544) (P36544 23-502): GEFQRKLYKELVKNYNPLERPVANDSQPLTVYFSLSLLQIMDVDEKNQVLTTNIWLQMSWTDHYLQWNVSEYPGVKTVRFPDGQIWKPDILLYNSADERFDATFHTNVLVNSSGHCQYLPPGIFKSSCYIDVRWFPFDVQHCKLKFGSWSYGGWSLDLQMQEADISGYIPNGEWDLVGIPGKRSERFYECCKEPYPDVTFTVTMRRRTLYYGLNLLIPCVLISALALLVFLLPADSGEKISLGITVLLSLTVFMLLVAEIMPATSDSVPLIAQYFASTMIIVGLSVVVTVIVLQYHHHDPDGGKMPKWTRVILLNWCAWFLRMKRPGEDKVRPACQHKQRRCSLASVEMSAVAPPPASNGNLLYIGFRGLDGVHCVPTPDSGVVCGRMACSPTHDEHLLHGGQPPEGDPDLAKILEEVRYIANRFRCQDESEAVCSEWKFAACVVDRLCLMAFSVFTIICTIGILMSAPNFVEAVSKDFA
Protocol: as §1, §2

[3] = test system: nAChRs on LUHMES neurons; test: Desensitization of nAChR agonist-evoked [Ca2+]i responses of LUHMES neurons; type: cell-based, human
Protocol: Ca^2+-imaging was performed using HT Functional Drug Screening System FDSS/µCELL (Hamamatsu Photonics) at nominal 37 °C. The FDSS/µCell system enables the indirect recording of changes of [Ca^2+]i via a Ca^2+-sensitive fluorescent dye. The fluorescence signal of a complete 384-well plate is acquired at once with a high-speed and high-sensitivity digital ImagEM X2 EM-CCD camera (Electron Multiplying Charge-Coupled Device, Hamamatsu Photonics), but with limited spatial resolution. Therefore, the software only determines the mean fluorescence signal of each well rather than of individual cells. For compound application, the integrated dispenser head with 384 pipette tips was used, which can add the test compound to all wells simultaneously. Cells were preincubated with Cal-520 AM (AAT Bioquest) at a concentration of 1 µM for 1 h at 37 °C. For recording, the medium was exchanged by a buffer solution containing [mM]: 135 NaCl, 5 KCl, 0.2 MgCl2, 2.5 CaCl2, 10 HEPES, and 10 D-glucose, pH 7.4. Test compound application was executed after obtaining a 1.5 min baseline recording. Where applicable, a second application was executed 4.5 min after the first application. The total recording never exceeded 8 min.
For the high-throughput Ca^2+-imaging data obtained in LUHMES cells, an offset correction using the FDSS software (version 3.2) was performed. Afterward, the data were exported and further analyzed with scripts written in R (version 3.6.3) (R Core Team [2020]). The concentration–response curves were fitted using a log-logistic model described by Ritz et al. ([2015]), utilizing the R package drc with its function drm() and LL2.2() with the following equation: f(x) = d/[1 + exp(b(log(x) − ẽ))] (Ritz et al. [2015]). The logarithm of the half-maximal effective concentration (logEC50) between 0 and the upper limit (d), which was set to 1, is represented by ẽ, x denotes the concentration, and b stands for the slope parameter (Ritz et al. [2015]). In cases with normalizations to responses induced by other compounds, the function LL2.3() was used with a variable upper limit (d; Ritz et al. [2015]). The same equation was used to determine the half-maximal inhibitory concentration (logIC50). Then the logEC50 and logIC50 values were converted into the pIC50 and pEC50 values, which are the negative logarithms to base 10.
Fig. 4 Desensitizing effects of DN-IMI and IMI-olefin on nAChRs. LUHMES neurons differentiated in 384-well plates were pretreated with various concentrations of DN-IMI or IMI-olefin for 4.5 min before different nAChR agonists were applied and [Ca^2+]i signals were recorded. […] Note the treatment scheme (upper right corner), illustrating the experimental design. […] Note the treatment scheme (upper right corner), illustrating the experimental design. Detailed data on n numbers are found in Table S6

## NC1=NCCN1Cc1ccc(Cl)nc1 [DN-IMI, desnitro-imidacloprid]
[1]; absence of PNU
  response without PNU as % of the maximal response obtained in the presence of PNU: about 44%
[1]; absence of PNU, normalized to 10 µM nicotine
  estimated maximum: ~ 0.44
[1]; absence of PNU, normalized to 10 µM nicotine, fit for < 10 µM
  relative pEC50 (AUC of fluorescence): 6.8 ± 0.36
[1]; presence of PNU, declining responses at higher concentrations
  concentration of peak response: ~ 3 µM
[1]; presence of PNU, normalized to 10 µM nicotine
  estimated maximum: ~ 0.93
[2]; normalized to 10 µM nicotine, fit for < 10 µM
  relative pEC50 (AUC of fluorescence): 6.5 ± 0.07
[2]; read-out: half-maximal response concentration
  EC50: 300 nM and ~300 nM
[3]; BMR10, LUHMES
  concentrations inhibiting subsequent activation of nAChRs (desensitization): ≥ 10 nM
[3]; compared to effects of IMI in Loser et al. [2021a]
  times more potent than IMI (desensitization): ~ 70 times
[3]; for a 20% effect
  BMC for receptor desensitization: ~ 17 nM
[3]; pretreatment […], 3 µM nicotine
  pIC50 for desensitization of the nicotine-evoked response: 6.9
